Counter-ions that a name gives are not always drawn. Like-named read-outs stand apart in the source and are kept apart here.

Experiment [1] deals with recombinant human SOS1 polypeptide (amino acids 560-1049) (Homo sapiens (Human), UniProt Q07889). Kind of experiment: biochemical. Type of experiment: binding.
The test system of experiment [2] is pERK in MKN1 cells. Kind of experiment: cells. The following applies: Homo sapiens. In kind it is cell-based.
Where [3] appears, read: HTRF displacement, Cy5 labelled tracer, Morrison equation for competitive binding, read-out: Ki, Inhibition of Labeled Tracer Binding to SOS1.
The mark [4] stands for this setting: MKN-1, pERK inhibition, In-Cell Western, MKN1 or H358 cells (Table 24 does not say which), 0.5-1 hour incubation, read-out: IC50.
Where [5] appears, read: read-out: Ki, Inhibition of Labeled Tracer Binding to SOS1.
Setting [6] is: MKN-1, pERK inhibition, In-Cell Western, MKN1 or H358 cells (Table 24 does not say which), 0.5-1 hour incubation.

Sequence of recombinant human SOS1 polypeptide (amino acids 560-1049) (Q07889 560-1049): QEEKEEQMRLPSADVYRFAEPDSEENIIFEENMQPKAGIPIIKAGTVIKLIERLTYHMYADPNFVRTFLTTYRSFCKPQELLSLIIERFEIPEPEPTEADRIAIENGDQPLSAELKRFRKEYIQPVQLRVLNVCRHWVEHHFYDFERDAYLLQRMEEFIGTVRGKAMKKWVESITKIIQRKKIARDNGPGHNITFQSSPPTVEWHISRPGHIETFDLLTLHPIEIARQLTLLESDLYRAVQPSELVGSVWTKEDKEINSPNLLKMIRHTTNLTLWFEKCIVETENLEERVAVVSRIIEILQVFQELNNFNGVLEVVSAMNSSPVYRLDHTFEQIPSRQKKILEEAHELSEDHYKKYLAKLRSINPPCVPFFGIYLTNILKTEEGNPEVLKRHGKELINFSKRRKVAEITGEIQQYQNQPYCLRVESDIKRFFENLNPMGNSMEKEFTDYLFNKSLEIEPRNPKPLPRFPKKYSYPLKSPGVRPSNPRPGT

What is called Ki is a measure of affinity in units of concentration, obtained from inhibition or displacement. In general, IC50 refers to the concentration that inhibits the measured activity by half. On to `Cc1nnc(N[C@H](C)c2cc(N)cc(C(F)(F)F)n2)c2cc(N3CC4CC(C3)O4)ccc12` [Example 16-4, N-((R)-1-(4-amino-6-(trifluoromethyl)pyridin-2-yl)ethyl)-7-(6-oxa-3-azabicyclo[3.1.1]heptan-3-yl)-4-methylphthalazin-1-amine], for which, in experiment [1] (setting [3]), the Ki worked out at 10.4 nM. For the same compound, in experiment [2] (setting [4]), the IC50 came to 371 nM.

Turning to `Cc1nnc(N[C@H](C)c2cc(N)cc(C(F)(F)F)n2)c2cc(N3CC4(CCN(C)C4=O)C3)ncc12` [Example 16-7, (R)-2-(1-((1-(4-amino-6-(trifluoromethyl)pyridin-2-yl)ethyl)amino)-4-methylpyrido[3,4-d]pyridazin-7-yl)-6-methyl-2,6-diazaspiro[3.4]octan-5-one], the Ki in experiment [1] (setting [3]) is 78.8 nM. In addition, the IC50 in experiment [2] (setting [4]) was found to be 2900 nM.

Turning to `Cc1c([C@@H](C)Nc2nnc(C)c3cnc(N4CCC(N(C)C)CC4)cc23)cccc1C(F)(F)F` [Example 12-15], in experiment [1] (setting [3]), the Ki was found to be 0.25 nM. The IC50 in experiment [2] (setting [4]) is 17 nM.

As to `Cc1c([C@@H](C)Nc2nnc(C)c3ccc(N4CCNCC(F)(F)C4)cc23)cccc1C(F)(F)F` [Example 10-5, (R)-7-(6,6-difluoro-1,4-diazepan-1-yl)-4-methyl-N-(1-(2-methyl-3-(trifluoromethyl)phenyl)ethyl)phthalazin-1-amine], the Ki in experiment [1] (setting [3]) is less than 0.01 nM. Besides, the IC50 in experiment [2] (setting [4]) is 108 nM.

As for `Cc1c(C#N)cccc1[C@@H](C)Nc1nnc(C)c2ccc(N3C[C@H]4CC[C@@H]3CN4C)cc12` [Example 10-71, 2-methyl-3-((R)-1-((4-methyl-7-((1R,4R)-5-methyl-2,5-diazabicyclo[2.2.2]octan-2-yl)phthalazin-1-yl)amino)ethyl)benzonitrile], the Ki in experiment [1] (setting [3]) turned out to be 0.39 nM. Further, in experiment [2] (setting [4]), the IC50 was determined as 19 nM.

Regarding `Cc1c([C@@H](C)Nc2nnc(C)c3ccc(N4CCC5(CCN(C)C5=O)CC4)cc23)cccc1C(F)(F)F` [Example 10-40, (R)-2-methyl-8-(1-methyl-4-((1-(2-methyl-3-(trifluoromethyl)phenyl)ethyl)amino)phthalazin-6-yl)-2,8-diazaspiro[4.5]decan-1-one], the Ki in experiment [1] (setting [3]) worked out at 0.43 nM. In experiment [2] (setting [4]), the IC50 turned out to be 11 nM.

In the case of `Cc1c([C@@H](C)Nc2nnc(C)c3ccc(O[C@H]4CCN(C)C4)cc23)cccc1C(F)(F)F` [Example 7-5, 4-methyl-N-((R)-1-(2-methyl-3-(trifluoromethyl)phenyl)ethyl)-7-(((S)-1-methylpyrrolidin-3-yl)oxy)phthalazin-1-amine], the Ki in experiment [1] (setting [3]) turned out to be 0.82 nM. The IC50 in experiment [2] (setting [4]) turned out to be 110 nM.

Consider `Cc1c([C@@H](C)Nc2nnc(C)c3ccc(N4CCC(N(C)C)C4)cc23)cccc1C(F)(F)F` (stereo in doubt) [Example 10-27, 7-((R)-3-(dimethylamino)pyrrolidin-1-yl)-4-methyl-N-((R)-1-(2-methyl-3-(trifluoromethyl)phenyl)ethyl)phthalazin-1-amine hydrochloride salt], for which, in experiment [1] (setting [5]), the Ki was found to be 0.46 nM. Inhibition in experiment [2] (MKN-1) was half-maximal at 154 nM (IC50).

In the case of `Cc1c([C@@H](C)Nc2nnc(C)c3ccc(O[C@H]4CCOC4)cc23)cccc1C(F)(F)F` [Example 13-1, 4-methyl-N—((R)-1-(2-methyl-3-(trifluoromethyl)phenyl)ethyl)-7-(((S)-tetrahydrofuran-3-yl)oxy)phthalazin-1-amine], the Ki in experiment [1] (setting [3]) came to 2.77 nM. Further, the IC50 in experiment [2] (setting [4]) was 149 nM.

`Cc1c([C@@H](C)Nc2nnc(C)c3ccc(N4CC(C)(N(C)C)C4)cc23)cccc1C(F)(F)F` [Example 10-66, (R)-7-(3-(dimethylamino)-3-methylazetidin-1-yl)-4-methyl-N-(1-(2-methyl-3-(trifluoromethyl)phenyl)ethyl)phthalazin-1-amine]: the Ki in experiment [1] (setting [3]) was found to be 0.78 nM. Further, the IC50 in experiment [2] (setting [4]) came to 108 nM.

With `Cc1nnc(N[C@H](C)c2cccc(C(F)(F)CO)c2)c2cc(N3CCOCC3)ncc12` [Example 21-7, (R)-2,2-difluoro-2-(3-(1-((4-methyl-7-morpholinopyrido[3,4-d]pyridazin-1-yl)amino)ethyl)phenyl)ethan-1-ol], the Ki in experiment [1] (setting [5]) was 0.71 nM. Also, the IC50 in experiment [2] (setting [6]) worked out at 26 nM.

Consider `Cc1nnc(N[C@H](C)c2cc(O)cc(C(F)(F)F)c2)c2cc(N3CCOCC3)ccc12` [Example 21-2, (R)-3-(1-((4-methyl-7-morpholinophthalazin-1-yl)amino)ethyl)-5-(trifluoromethyl)phenol], for which the Ki in experiment [1] was found to be 1.67 nM. Also, the IC50 in experiment [2] (setting [6]) amounted to 137 nM.

In the case of `CNCc1c(F)cccc1-c1ccc([C@@H](C)Nc2nnc(C)c3cnc(N4CCOCC4)cc23)s1` [Example 6-13, (R)-N-(1-(5-(3-fluoro-2-((methylamino)methyl)phenyl)thiophen-2-yl)ethyl)-4-methyl-7-morpholinopyrido[3,4-d]pyridazin-1-amine], the Ki in experiment [1] (setting [3]) was determined as 0.29 nM. In experiment [2] (setting [4]), the IC50 is 20 nM.

As for `Cc1nnc(N[C@H](C)c2cc(N)cc(C(F)(F)F)n2)c2cc(N3C[C@H]4CC[C@@H]3CN4C)ccc12` [Example 16-5, N-((R)-1-(4-amino-6-(trifluoromethyl)pyridin-2-yl)ethyl)-4-methyl-7-((1R, 4R)-5-methyl-2,5-diazabicyclo[2.2.2]octan-2-yl)phthalazin-1-amine], the inhibition constant (Ki) in experiment [1] (setting [3]) amounted to 5.5 nM. Besides, the IC50 in experiment [2] (setting [4]) came out at 71 nM.

On to `Cc1c([C@@H](C)Nc2nnc(C)c3ccc(OC[C@H]4CCCN4C)cc23)cccc1C(F)(F)F` [Example 10-25, 4-methyl-N-((R)-1-(2-methyl-3-(trifluoromethyl)phenyl)ethyl)-7-(((R)-1-methylpyrrolidin-2-yl)methoxy)phthalazin-1-amine hydrochloride salt], for which the Ki in experiment [1] (setting [5]) came out at 1.47 nM. For the same compound, half-maximal inhibition in experiment [2] (MKN-1) (IC50) required 103 nM.

Turning to `Cc1nnc(N[C@H](C)c2cc(O)cc(C(F)(F)F)c2)c2cc(N3CCOCC3)ncc12` [Example 21-1, (R)-3-(1-((4-methyl-7-morpholinopyrido[3,4-d]pyridazin-1-yl)amino)ethyl)-5-(trifluoromethyl)phenol], the Ki in experiment [1] (setting [3]) turned out to be 2.93 nM. Also, the IC50 in experiment [2] (setting [4]) was determined as 77 nM.

Regarding `Cc1nnc(N[C@H](C)c2cccc(C(F)(F)F)c2F)c2cc(N3CC(N(C)C)C3)ncc12` [Example 12-66], the Ki in experiment [1] (setting [3]) stood at 2.1 nM. Further, the IC50 in experiment [2] (setting [4]) stood at 77 nM.

For `Cc1c([C@@H](C)Nc2nnc(C)c3cnc(N4CC(C)(CO)C4)cc23)cccc1C(F)(F)F` [Example 12-39], the inhibition constant Ki in experiment [1] (setting [3]) was found to be 0.91 nM. Further, in experiment [2] (setting [4]), the IC50 is 75 nM.

For the compound `Cc1c(C(F)F)cccc1[C@@H](C)Nc1nnc(C)c2cnc(N3CCN4CCOC[C@@H]4C3)cc12` [Example 12-42], in experiment [1] (setting [3]), the Ki came to 0.79 nM. Moreover, the IC50 in experiment [2] (setting [4]) came out at 27 nM.

As to `Cc1nc2n(c1C)CCN(c1ccc3cnnc(N[C@H](C)c4cccc(C(F)(F)F)c4C)c3c1)C2` [Example 1-28, (R)-7-(2,3-dimethyl-5,6-dihydroimidazo[1,2-a]pyrazin-7(8H)-yl)-N-(1-(2-methyl-3-(trifluoromethyl)phenyl)ethyl)phthalazin-1-amine], the Ki in experiment [1] (setting [3]) was 0.17 nM. Besides, the IC50 in experiment [2] (setting [4]) is 61 nM.

`Cc1c(C#N)cccc1[C@@H](C)Nc1nnc(C)c2cnc(N3CC4CC(C3)O4)cc12` [Example 12-23]: the inhibition constant Ki in experiment [1] (setting [3]) was 1.05 nM. The IC50 in experiment [2] (setting [4]) amounted to 46 nM.

On to `Cc1c(C(F)F)cccc1[C@@H](C)Nc1nnc(C)c2ccc(N3CCC(N4CCC4)CC3)cc12` [Example 10-44, (R)-7-(4-(azetidin-1-yl)piperidin-1-yl)-N-(1-(3-(difluoromethyl)-2-methylphenyl)ethyl)-4-methylphthalazin-1-amine hydrochloride salt], for which, in experiment [1] (setting [5]), the Ki came to 0.51 nM. Further, the IC50 in experiment [2] (MKN-1) came out at 53 nM.

Take `CNCc1nnc(N[C@H](C)c2cccc(C(F)(F)F)c2C)c2cc(N3C[C@H]4C[C@@H]3CO4)ncc12` [Example 14-5, 7-((1R,4R)-2-oxa-5-azabicyclo[2.2.1]heptan-5-yl)-N-((R)-1-(2-methyl-3-(trifluoromethyl)phenyl)ethyl)-4-((methylamino)methyl)pyrido[3,4-d]pyridazin-1-amine]: the Ki in experiment [1] (setting [3]) amounted to 2.54 nM. Further, the IC50 in experiment [2] (setting [4]) worked out at 70 nM.

With `Cc1c([C@@H](C)Nc2nnc(C)c3cnc(N4CCC(C)(N(C)C)CC4)cc23)cccc1C(F)(F)F` [Example 12-18], the Ki in experiment [1] (setting [3]) is 0.62 nM. Further, in experiment [2] (setting [4]), the IC50 was 37 nM.

In the case of `Cc1c([C@@H](C)Nc2nnc(C)c3cnc(N4C5CCC4COC5)cc23)cccc1C(F)(F)F` [Example 12-31], the Ki in experiment [1] (setting [3]) stood at 1.02 nM. Further, the IC50 in experiment [2] (setting [4]) was 70 nM.

For `Cc1nnc(N[C@H](C)c2cc(N)cc(C(F)(F)F)n2)c2cc(N3CC4CC(C3)O4)ncc12` [Example 16-13, N-((R)-1-(4-amino-6-(trifluoromethyl)pyridin-2-yl)ethyl)-7-(6-oxa-3-azabicyclo[3.1.1]heptan-3-yl)-4-methylpyrido[3,4-d]pyridazin-1-amine], the Ki in experiment [1] (setting [3]) is 25.8 nM. The IC50 in experiment [2] (setting [4]) was more than 10000 nM.

As to `Cc1c([C@@H](C)Nc2nnc(C)c3cnc(N4CCS(=O)(=O)CC4)cc23)cccc1C(F)(F)F` [Example 12-13], the Ki in experiment [1] (setting [3]) turned out to be 1.57 nM. The IC50 in experiment [2] (setting [4]) was 39 nM.

`Cc1nnc(N[C@H](C)c2cc(N)cc(C(F)(F)F)n2)c2cc(N3CCOCC3)ccc12` [Example 16-1, (R)—N-(1-(4-amino-6-(trifluoromethyl)pyridin-2-yl)ethyl)-4-methyl-7-morpholinophthalazin-1-amine]: the Ki in experiment [1] came out at 14.4 nM. In experiment [2] (setting [6]), this compound registered an IC50 of 245 nM.

As to `Cc1c([C@@H](C)Nc2nnc(C)c3cnc(N4CC5(CCN(C)C5=O)C4)cc23)cccc1C(F)(F)F` [Example 12-16], in experiment [1] (setting [3]), the Ki was 0.87 nM. Moreover, the IC50 in experiment [2] (setting [4]) came to 11 nM.

As to `Cc1nnc(N[C@H](C)c2cccc(C(F)(F)F)c2F)c2cc(N3CC(N(C)C)C3)ccc12` [Example 10-76, (R)-7-(3-(dimethylamino)azetidin-1-yl)-N-(1-(2-fluoro-3-(trifluoromethyl)phenyl)ethyl)-4-methylphthalazin-1-amine], the inhibition constant Ki in experiment [1] (setting [3]) amounted to 3.44 nM. Besides, the IC50 in experiment [2] (setting [4]) worked out at 85 nM.
